Tested on: Aspergillus flavus
Assay: agar plate disc-diffusion, antifungal, Aspergillus flavus
Type: cell-based
Conditions: A = concentration of comp. = 10,000 μL; DMSO control zone subtracted
Description: (§1) The agar plate disc-diffusion method was applied. Sterilized filter papers (6 mm in diameter) were wetted with 10 μL of a solution of 6-(6-bromo-2-oxo-2H-chromen-3-yl)-4-(4-chlorophenyl)-2-ethoxynicotinonitrile (1) and 6-(6-bromo-2-oxo-2H-chromen-3-yl)-4-(4-chlorophenyl)-2-methoxynicotinonitrile (2) to be tested, containing […], and the discs were allowed to air dry. The discs were then placed onto the surface of agar plates (nutrient agar for bacteria and Sabouraud's dextrose agar for fungi) seeded with the test organism. Each plate contained 15 mL of the agar medium, previously seeded with 0.2 mL of the broth culture of each organism pregrown for 18 hours. The plates were incubated at 37° C. for 48 hours, and 72 hours for fungi. The inhibition zones were measured in millimeters. Discs impregnated with DMSO were used as a control, and its inhibition zone was subtracted from the tested compound actual inhibition zone.
(§2) Their antibacterial screened against gram positive bacteria namely Bacillus cereus and Staphylococcus aureus and gram-negative bacterial strains namely Pseudomonas aeruginosa and Escherichia coli, while their antifungal activity screened against Aspergillus flavus and Chrysosporium keratinophilum as shown in Tables 1 and 2 using ciprofloxacin as a reference.

SMILES | inhibition zone, Aspergillus flavus, A
O=C(O)c1cn(C2CC2)c2cc(N3CCNCC3)c(F)cc2c1=O [Cip., ciprofloxacin, reference compound] | 29 millimeters

Same assay, conditions: B = concentration of comp. = 30.000 μL; DMSO control zone subtracted

SMILES | inhibition zone, Aspergillus flavus, B
O=C(O)c1cn(C2CC2)c2cc(N3CCNCC3)c(F)cc2c1=O [Cip., ciprofloxacin, reference compound] | 30 millimeters

Same assay, conditions: C = concentration of comp. = 50,000 μL; DMSO control zone subtracted

SMILES | inhibition zone, Aspergillus flavus, C
O=C(O)c1cn(C2CC2)c2cc(N3CCNCC3)c(F)cc2c1=O [Cip., ciprofloxacin, reference compound] | 42 millimeters

Tested on: Escherichia coli
Assay: agar plate disc-diffusion, antibacterial, Escherichia coli
Type: cell-based
Conditions: A = concentration of comp. = 10,000 μL; DMSO control zone subtracted
Description: as §1, §2

SMILES | inhibition zone, Escherichia coli, A
O=C(O)c1cn(C2CC2)c2cc(N3CCNCC3)c(F)cc2c1=O [Cip., ciprofloxacin, reference compound] | 30 millimeters

Same assay, conditions: B = concentration of comp. = 30.000 μL; DMSO control zone subtracted

SMILES | inhibition zone, Escherichia coli, B
O=C(O)c1cn(C2CC2)c2cc(N3CCNCC3)c(F)cc2c1=O [Cip., ciprofloxacin, reference compound] | 39 millimeters

Same assay, conditions: C = concentration of comp. = 50,000 μL; DMSO control zone subtracted

SMILES | inhibition zone, Escherichia coli, C
O=C(O)c1cn(C2CC2)c2cc(N3CCNCC3)c(F)cc2c1=O [Cip., ciprofloxacin, reference compound] | 60 millimeters

Tested on: Chrysosporium keratinophilum
Assay: agar plate disc-diffusion, antifungal, Chrysosporium keratinophilum
Type: cell-based
Conditions: A = concentration of comp. = 10,000 μL; DMSO control zone subtracted
Description: as §1, §2

SMILES | inhibition zone, Chrysosporiam keratinophilum, A
O=C(O)c1cn(C2CC2)c2cc(N3CCNCC3)c(F)cc2c1=O [Cip., ciprofloxacin, reference compound] | 29 millimeters

Same assay, conditions: B = concentration of comp. = 30.000 μL; DMSO control zone subtracted

SMILES | inhibition zone, Chrysosporiam keratinophilum, B
O=C(O)c1cn(C2CC2)c2cc(N3CCNCC3)c(F)cc2c1=O [Cip., ciprofloxacin, reference compound] | 30 millimeters

Same assay, conditions: C = concentration of comp. = 50,000 μL; DMSO control zone subtracted

SMILES | inhibition zone, Chrysosporiam keratinophilum, C
O=C(O)c1cn(C2CC2)c2cc(N3CCNCC3)c(F)cc2c1=O [Cip., ciprofloxacin, reference compound] | 53 millimeters

Tested on: Pseudomonas aeruginosa
Assay: agar plate disc-diffusion, antibacterial, Pseudomonas aeruginosa
Type: cell-based
Conditions: A = concentration of comp. = 10,000 μL; DMSO control zone subtracted
Description: as §1, §2

SMILES | inhibition zone, Pseudomonas aeruginosa, A
O=C(O)c1cn(C2CC2)c2cc(N3CCNCC3)c(F)cc2c1=O [Cip., ciprofloxacin, reference compound] | 29 millimeters

Same assay, conditions: B = concentration of comp. = 30.000 μL; DMSO control zone subtracted

SMILES | inhibition zone, Pseudomonas aeruginosa, B
O=C(O)c1cn(C2CC2)c2cc(N3CCNCC3)c(F)cc2c1=O [Cip., ciprofloxacin, reference compound] | 30 millimeters

Same assay, conditions: C = concentration of comp. = 50,000 μL; DMSO control zone subtracted

SMILES | inhibition zone, Pseudomonas aeruginosa, C
O=C(O)c1cn(C2CC2)c2cc(N3CCNCC3)c(F)cc2c1=O [Cip., ciprofloxacin, reference compound] | 53 millimeters

Tested on: Staphylococcus aureus
Assay: agar plate disc-diffusion, antibacterial, Staphylococcus aureus
Type: cell-based
Conditions: A = concentration of comp. = 10,000 μL; DMSO control zone subtracted
Description: as §1, §2

SMILES | inhibition zone, Staphylococcus aureus, A
O=C(O)c1cn(C2CC2)c2cc(N3CCNCC3)c(F)cc2c1=O [Cip., ciprofloxacin, reference compound] | 43 millimeters

Same assay, conditions: B = concentration of comp. = 30.000 μL; DMSO control zone subtracted

SMILES | inhibition zone, Staphylococcus aureus, B
O=C(O)c1cn(C2CC2)c2cc(N3CCNCC3)c(F)cc2c1=O [Cip., ciprofloxacin, reference compound] | 44 millimeters

Same assay, conditions: C = concentration of comp. = 50,000 μL; DMSO control zone subtracted

SMILES | inhibition zone, Staphylococcus aureus, C
O=C(O)c1cn(C2CC2)c2cc(N3CCNCC3)c(F)cc2c1=O [Cip., ciprofloxacin, reference compound] | 53 millimeters

Tested on: Bacillus cereus
Assay: agar plate disc-diffusion, antibacterial, Bacillus cereus
Type: cell-based
Conditions: A = concentration of comp. = 10,000 μL; DMSO control zone subtracted
Description: as §1, §2

SMILES | inhibition zone, Bacillus Cereus, A
O=C(O)c1cn(C2CC2)c2cc(N3CCNCC3)c(F)cc2c1=O [Cip., ciprofloxacin, reference compound] | 29 millimeters

Same assay, conditions: B = concentration of comp. = 30.000 μL; DMSO control zone subtracted

SMILES | inhibition zone, Bacillus Cereus, B
O=C(O)c1cn(C2CC2)c2cc(N3CCNCC3)c(F)cc2c1=O [Cip., ciprofloxacin, reference compound] | 30 millimeters

Same assay, conditions: C = concentration of comp. = 50,000 μL; DMSO control zone subtracted

SMILES | inhibition zone, Bacillus Cereus, C
O=C(O)c1cn(C2CC2)c2cc(N3CCNCC3)c(F)cc2c1=O [Cip., ciprofloxacin, reference compound] | 42 millimeters

From patent US11958835B1, “6-(6-bromo-2-oxo-2H-chromen-3-yl)-4-(4-chlorophenyl)-2-alkoxynicotinonitrile as antimicrobial agents” (KING FAISAL UNIVERSITY, priority 2023, dated 2024)
